Read-outs that look alike come from different tables or passages of the source.
Legend:
Type in all cases: in vivo
[1] = tested on: Erysiphe graminis tritici (Wheat); test: Foliar fungal disease test on plants: Erysiphe graminis tritici (Wheat); settings: plants inoculated 24 hours before treatment
[2] = tested on: Plasmopara viticola (Vines); test: Foliar fungal disease test on plants: Plasmopara viticola (Vines); settings: one or two days before inoculation
[3] = tested on: Venturia inaequalis (Apples); test: Foliar fungal disease test on plants: Venturia inaequalis (Apples); settings: one or two days before inoculation
[4] = tested on: Puccinia recondita (Wheat); test: Foliar fungal disease test on plants: Puccinia recondita (Wheat)
Septoria nodorum (Wheat) = test: Foliar fungal disease test on plants: Septoria nodorum (Wheat); settings: one or two days before inoculation
[5] = tested on: Thanatephorus cucumeries (Rice); test: Foliar fungal disease test on plants: Thanatephorus cucumeries (Rice); settings: one or two days before inoculation
[6] = tested on: Phytophthora infestans (Tomatoes); settings: one or two days before inoculation
[7] = tested on: Pyricularia oryzae (Rice); settings: one or two days before inoculation
[8] = 100 ppm a.i. foliar spray or root drench (approx. 40 ppm in dry soil)
[9] = 100 ppm a.i. foliar spray or root drench, plants inoculated with Puccinia recondita 48 hours before treatment
[10] = 100 ppm a.i. foliar spray or root drench (approx. 40 ppm in dry soil), one or two days before inoculation
[11] = 10 ppm foliar spray only, plants inoculated with Puccinia recondita 48 hours before treatment

| SMILES | POCO (Percentage of Control) disease level, Erysiphe graminis tritici (Wheat) [1, 8] | POCO (Percentage of Control) disease level, Plasmopara viticola (Vines) [2, 8] | POCO (Percentage of Control) disease level, Venturia inaequalis (Apples) [3, 8] | POCO (Percentage of Control) disease level, Puccinia recondita (Wheat) [4, 9] | POCO (Percentage of Control) disease level, Septoria nodorum (Wheat) (Septoria nodorum (Wheat); [8]) | POCO (Percentage of Control) disease level, Thanatephorus cucumeries (Rice) [5, 8] | POCO (Percentage of Control) disease level, Phytophthora infestans (Tomatoes) [6, 8] | POCO (Percentage of Control) disease level, Pyricularia oryzae (Rice) [7, 8] | POCO (Percentage of Control) disease level, Puccinia recondita (Wheat) [4, 10] | POCO (Percentage of Control) disease level, Erysiphe graminis tritici (Wheat) ([1]; 10 ppm foliar spray only) | POCO (Percentage of Control) disease level, Plasmopara viticola (Vines) ([2]; 10 ppm foliar spray only) | POCO (Percentage of Control) disease level, Venturia inaequalis (Apples) ([3]; 10 ppm foliar spray only) | POCO (Percentage of Control) disease level, Puccinia recondita (Wheat) [4, 11] | POCO (Percentage of Control) disease level, Septoria nodorum (Wheat) (Septoria nodorum (Wheat); 10 ppm foliar spray only) | POCO (Percentage of Control) disease level, Thanatephorus cucumeries (Rice) ([5]; 10 ppm foliar spray only) | POCO (Percentage of Control) disease level, Phytophthora infestans (Tomatoes) ([6]; 10 ppm foliar spray only) | POCO (Percentage of Control) disease level, Pyricularia oryzae (Rice) ([7]; 10 ppm foliar spray only) |
| --- | --- | --- | --- | --- | --- | --- | --- | --- | --- | --- | --- | --- | --- | --- | --- | --- | --- |
| COC=C(C(=O)OC)c1ccccc1COC(=O)N1CCSCC1 [4 (133)] | 90 (90 and 94 = 60.1-100% disease present) | 0 (0 = 0% disease present) | 10 (10 = 5.1-10% disease present) | 60+ (60 = 30.1-60% disease present) | 90 (90 and 94 = 60.1-100% disease present) | 60 (60 = 30.1-60% disease present) | 90 (90 and 94 = 60.1-100% disease present) | 90 (90 and 94 = 60.1-100% disease present) | – | – | – | – | – | – | – | – | – |
| CCN(C(=O)OCc1ccccc1C(=COC)C(=O)OC)c1ccc(F)c([N+](=O)[O-])c1 [105 (3)] | 90 (90 and 94 = 60.1-100% disease present) | 0 (0 = 0% disease present) | 0 (0 = 0% disease present) | 90+ (90 and 94 = 60.1-100% disease present) | 90 (90 and 94 = 60.1-100% disease present) | 20 (20 and 24 = 10.1-20% disease present) | 0 (0 = 0% disease present) | 60 (60 = 30.1-60% disease present) | – | – | – | – | – | – | – | – | – |
| COC=C(C(=O)OC)c1ccccc1COC(=O)Nc1c(F)cccc1F [23 (1)] | 0 (0 = 0% disease present) | 0 (0 = 0% disease present) | 0 (0 = 0% disease present) | 30+ (30 = 20.1-30% disease present) | 30 (30 = 20.1-30% disease present) | 0 (0 = 0% disease present) | 90 (90 and 94 = 60.1-100% disease present) | 30 (30 = 20.1-30% disease present) | – | – | – | – | – | – | – | – | – |
| COC=C(C(=O)OC)c1ccccc1COC(=O)NCc1ccccc1 [4 (1)] | 90 (90 and 94 = 60.1-100% disease present) | 20 (20 and 24 = 10.1-20% disease present) | 60 (60 = 30.1-60% disease present) | – | 30 (30 = 20.1-30% disease present) | 90 (90 and 94 = 60.1-100% disease present) | 60 (60 = 30.1-60% disease present) | 90 (90 and 94 = 60.1-100% disease present) | 30 (30 = 20.1-30% disease present) | – | – | – | – | – | – | – | – |
| COC=C(C(=O)OC)c1ccccc1COC(=O)Nc1cccc([N+](=O)[O-])c1 [6 (1)] | 90 (90 and 94 = 60.1-100% disease present) | 90 (90 and 94 = 60.1-100% disease present) | 60 (60 = 30.1-60% disease present) | – | 30 (30 = 20.1-30% disease present) | 90 (90 and 94 = 60.1-100% disease present) | 60 (60 = 30.1-60% disease present) | 90 (90 and 94 = 60.1-100% disease present) | 90 (90 and 94 = 60.1-100% disease present) | – | – | – | – | – | – | – | – |
| CO/C=C(/C(=O)OC)c1ccccc1COC(=O)Nc1cccc(C(F)(F)F)c1 [2 (1), (E)-methyl 3-methoxy-2-[2-((3-trifluoromethylphenyl)carbamoyloxymethyl)phenyl]-propenoate] | 60 (60 = 30.1-60% disease present) | 10 (10 = 5.1-10% disease present) | 0 (0 = 0% disease present) | – | 20 (20 and 24 = 10.1-20% disease present) | 60 (60 = 30.1-60% disease present) | 10 (10 = 5.1-10% disease present) | 5 (5 = 3.1-5% disease present) | 10 (10 = 5.1-10% disease present) | – | – | – | – | – | – | – | – |
| COC=C(C(=O)OC)c1ccccc1OC(=O)Nc1ccc(F)cc1F [24 (17)] | 0 (0 = 0% disease present) | 0 (0 = 0% disease present) | 0 (0 = 0% disease present) | 0+ (0 = 0% disease present) | 0 (0 = 0% disease present) | 60 (60 = 30.1-60% disease present) | 0 (0 = 0% disease present) | 0 (0 = 0% disease present) | – | – | – | – | – | – | – | – | – |
| COC=C(C(=O)OC)c1ccccc1OC(=O)N(C)c1ccc(F)cc1F [24 (18)] | – | – | – | – | – | – | – | – | – | 60 (60 = 30.1-60% disease present) | 90 (90 and 94 = 60.1-100% disease present) | 90 (90 and 94 = 60.1-100% disease present) | 90+ (90 and 94 = 60.1-100% disease present) | 90 (90 and 94 = 60.1-100% disease present) | 90 (90 and 94 = 60.1-100% disease present) | 90 (90 and 94 = 60.1-100% disease present) | 90 (90 and 94 = 60.1-100% disease present) |
| COC=C(C(=O)OC)c1ccccc1COC(=O)N(C)c1cccc(F)c1 [8 (2)] | 0 (0 = 0% disease present) | 0 (0 = 0% disease present) | 0 (0 = 0% disease present) | 0+ (0 = 0% disease present) | 0 (0 = 0% disease present) | 0 (0 = 0% disease present) | 0 (0 = 0% disease present) | 0 (0 = 0% disease present) | – | – | – | – | – | – | – | – | – |
| CNC(=O)C(=NOC)c1ccccc1COC(=O)Nc1ccccc1 [5 (65)] | – | – | – | – | – | – | – | – | – | 30 (30 = 20.1-30% disease present) | 90 (90 and 94 = 60.1-100% disease present) | 90 (90 and 94 = 60.1-100% disease present) | 90+ (90 and 94 = 60.1-100% disease present) | 90 (90 and 94 = 60.1-100% disease present) | 90 (90 and 94 = 60.1-100% disease present) | 90 (90 and 94 = 60.1-100% disease present) | 30 (30 = 20.1-30% disease present) |
| COC=C(C(=O)OC)c1ccccc1COC(=O)N(C)c1ccccc1C(=O)OC [33 (2)] | 0 (0 = 0% disease present) | 10 (10 = 5.1-10% disease present) | 60 (60 = 30.1-60% disease present) | 90+ (90 and 94 = 60.1-100% disease present) | 90 (90 and 94 = 60.1-100% disease present) | 60 (60 = 30.1-60% disease present) | 90 (90 and 94 = 60.1-100% disease present) | 30 (30 = 20.1-30% disease present) | – | – | – | – | – | – | – | – | – |
